From ChEMBL document CHEMBL1146458, “Five new maleic and succinic acid derivatives from the mycelium of Antrodia camphorata and their cytotoxic effects on LLC tumor cell line” (2004)
Converted amounts (≈) assume the structure as drawn.

assay: Cytotoxicity against mouse LLC cells after 48 hrs by SRB assay; assay type: functional; conditions: Lewis lung carcinoma, read-out: ED50 (the source's name)

Point of comparison: `CC(C)=CCOc1ccc(C2=C(CC(C)C)C(=O)N(O)C2=O)cc1`, EC50 7.5 µg/mL (≈ 22.8 µM). Against it:
- CC(C)=CCOc1ccc(C2=C(CC(C)C)C(=O)OC2=O)cc1 — higher, > 20 µg/mL
- CC(C)=CCOc1ccc(C2=C(CC(C)C)C(=O)NC2=O)cc1 — 2.1-fold lower, 3.6 µg/mL (≈ 11.5 µM)
- CC(C)=CCOc1ccc([C@H]2C(=O)N(O)C(=O)[C@@H]2CC(C)C)cc1 (relative stereo) — higher, > 10 µg/mL
- COc1cccc2c1C(=O)c1c(O)c3c(c(O)c1C2=O)C[C@@](O)(C(=O)CO)C[C@@H]3O[C@H]1C[C@H](N)[C@H](O)[C@H](C)O1 [DOXORUBICIN] — 54-fold lower, 0.14 µg/mL (≈ 0.258 µM)
